Laboratory results as given in PubChem BioAssay AID493105 (The Scripps Research Institute Molecular Screening Center, 2011).
Active and inactive are the calls of the source. How the calls were made is not given here.

Legend:
Assay in all cases: LYPLA1 and LYPLA2 inhibitors, biochemical, gel-based ABPP, fluorescence, recombinant and endogenous enzyme (AID 493105)
emLYPLA1 = conditions: fluorescent probe labeling, membrane fraction, at 20 µM, hits give high values
emLYPLA2 = conditions: fluorescent probe labeling, membrane fraction, at 20 µM, hits give high values
rhLYPLA1 = conditions: fluorescent probe labeling, soluble fraction, at 20 µM, hits give high values
rhLYPLA2 = conditions: fluorescent probe labeling, membrane fraction, at 20 µM, hits give high values

Row | Structure (SMILES) | inhibition (emLYPLA1) | inhibition (emLYPLA2) | inhibition (rhLYPLA1) | inhibition (rhLYPLA2)
1 | COc1ccc(N2CCN(C(=O)CNC(=O)c3cn(-c4ccccc4OC)c(=O)c4ccccc34)CC2)cc1 | 15% (inactive) | 34% | 0% (inactive) | 26% (inactive)
2 | O=C(c1ccc2n[nH]nc2c1)N1CCN(c2ccc(C(F)(F)F)cn2)CC1 | 90% | 57% | 70% | 32%
3 | CCC(=O)N1CCN(c2ccc(NC(=S)NC(=O)c3cccc([N+](=O)[O-])c3)cc2)CC1 | 8% (inactive) | 6% (inactive) | 0% (inactive) | 5% (inactive)
4 | CC1CN(Cc2cc(=O)oc3cc(O)c(Cl)cc23)CC(C)O1 (stereo not drawn) | 0% (inactive) | 0% (inactive) | 0% (inactive) | 3% (inactive)
5 | COc1ccc(C(CNC(=O)COc2ccc(-c3ccccc3)cc2)N2CCOCC2)cc1 (stereo not drawn) | 0% (inactive) | 1% (inactive) | 5% (inactive) | 0% (inactive)
6 | COc1ccc2c(c1)C(=O)[C@H](O)[C@@H](c1ccc(OC)c(Br)c1)O2 | 0% (inactive) | 73% | 0% (inactive) | 51%
7 | O=C(C1CCC(Cn2c(=S)[nH]c3ccccc3c2=O)CC1)N1CCN(c2ccccc2)CC1 (stereo not drawn) | 0% (inactive) | 8% (inactive) | 0% (inactive) | 13% (inactive)
8 | O=C(O)c1ccc2c(c1)C(=O)N(CCCCCCCN1C(=O)c3ccc(C(=O)O)cc3C1=O)C2=O | 23% (inactive) | 3% (inactive) | 65% | 0% (inactive)
9 | O=c1ccc2ccc(Oc3ccc([N+](=O)[O-])cc3Cl)cc2o1 | 0% (inactive) | 17% (inactive) | 0% (inactive) | 6% (inactive)
10 | COc1ccc(-n2c(C)c([N+](=O)[O-])c3ccc(O)c(CN4CCCCC4)c32)cc1 | 0% (inactive) | 0% (inactive) | 21% (inactive) | 0% (inactive)
11 | OC(COc1ccc(Cl)cc1)CN1CCN(c2cccc(Cl)c2)CC1 (stereo not drawn) | 0% (inactive) | 0% (inactive) | 0% (inactive) | 0% (inactive)
12 | COc1ccc(OC)c(NC(=O)C2CCC(CNc3c(N4CCC(C)CC4)c(=O)c3=O)CC2)c1 (stereo not drawn) | 2% (inactive) | 3% (inactive) | 27% (inactive) | 7% (inactive)
13 | Clc1ccc(C(c2ccc(Cl)cc2)n2cc[n+](CC(OCc3ccc(Cl)cc3Cl)c3ccc(Cl)cc3Cl)c2)cc1 (stereo not drawn) | 0% (inactive) | 0% (inactive) | 0% (inactive) | 0% (inactive)
14 | O=C(COc1ccc(Cl)cc1)N1CCN(c2ccc([N+](=O)[O-])c(N3CCOCC3)c2)CC1 | 0% (inactive) | 0% (inactive) | 47% | 3% (inactive)
15 | O=C(CN1CCN(C(=O)c2ccco2)CC1)Nc1cc(C(F)(F)F)ccc1Cl | 60% | 13% (inactive) | 78% | 0% (inactive)
16 | CCN(CC)S(=O)(=O)c1cccc(-c2nnc(SCCOc3ccccc3)o2)c1 | 0% (inactive) | 17% (inactive) | 8% (inactive) | 19% (inactive)
17 | COc1ccc(-n2nc(C(=O)NCC(=O)N3CCN(Cc4ccccc4)CC3)c3ccccc3c2=O)c(OC)c1 | 0% (inactive) | 46% | 31% | 30%
18 | O=C(CCN1CCN(c2ccc([N+](=O)[O-])cc2)CC1)c1ccc(Cl)cc1 | 9% (inactive) | 1% (inactive) | 0% (inactive) | 6% (inactive)
19 | Cc1c(Br)c([N+](=O)[O-])nn1CC(=O)Nc1ccc(Cc2ccncc2)cc1 | 8% (inactive) | 8% (inactive) | 0% (inactive) | 0% (inactive)
20 | O=C(CCCc1ccccc1)N1CCN(c2ccc([N+](=O)[O-])cc2)CC1 | 0% (inactive) | 3% (inactive) | 0% (inactive) | 0% (inactive)
21 | O=C(CN1CCN(c2ccccn2)CC1)Nc1cc(C(F)(F)F)ccc1Cl | 0% (inactive) | 9% (inactive) | 36% | 6% (inactive)

Row | Structure (SMILES) | inhibition (emLYPLA1) | inhibition (emLYPLA2) | inhibition (rhLYPLA1) | inhibition (rhLYPLA2)
22 | O=C1N=C(N2CCN(Cc3ccccc3)CC2)S/C1=C/c1cccs1 | 4% (inactive) | 0% (inactive) | 0% (inactive) | 2% (inactive)
23 | COc1ccc(-n2nc(C(=O)NCC(=O)N3CCN(Cc4ccccc4)CC3)c3ccccc3c2=O)cc1OC | 23% (inactive) | 15% (inactive) | 16% (inactive) | 7% (inactive)
24 | COc1cccc(N=C2NC(=O)/C(=C/c3cc([N+](=O)[O-])ccc3O)S2)c1 | 20% (inactive) | 6% (inactive) | 0% (inactive) | 0% (inactive)
25 | Cc1ccc(OCC(=O)N2CCN(c3ccc([N+](=O)[O-])c(N4CCOCC4)c3)CC2)cc1 | 0% (inactive) | 0% (inactive) | 10% (inactive) | 0% (inactive)
26 | CCC(=C/c1sc2ccc3ccccc3c2[n+]1C)/C=C1\Sc2ccc3ccccc3c2N1C | 1% (inactive) | 7% (inactive) | 0% (inactive) | 2% (inactive)
27 | COc1ccccc1-n1cc(C(=O)NCC(=O)N2CCN(Cc3ccccc3)CC2)c2ccccc2c1=O | 1% (inactive) | 52% | 0% (inactive) | 39%
28 | O=C(CCCCCCN1C(=O)c2ccccc2C1=O)N1CCC(c2ccccc2)C1 (stereo not drawn) | 0% (inactive) | 17% (inactive) | 17% (inactive) | 2% (inactive)
29 | CC(=O)N1CCC2(CC1)C/C(=N\NC(=S)Nc1ccccc1C)c1cc(O)ccc1O2 | 2% (inactive) | 5% (inactive) | 0% (inactive) | 3% (inactive)
30 | Clc1cccc(N2CCN(CCNc3nc4ccccc4n4cnnc34)CC2)c1 | 1% (inactive) | 0% (inactive) | 0% (inactive) | 0% (inactive)
31 | Cc1ccc([N+](=O)[O-])c(OCCCN2CCC(Cc3ccccc3)CC2)c1 | 0% (inactive) | 2% (inactive) | 7% (inactive) | 0% (inactive)
32 | CC(=O)N1CCN(c2ccc(NC(=S)NC(=O)c3ccc(C)c([N+](=O)[O-])c3)cc2)CC1 | 0% (inactive) | 14% (inactive) | 17% (inactive) | 5% (inactive)
33 | COc1cc(COc2ccc3c(C)c(Cc4ccccc4)c(=O)oc3c2)cc(OC)c1OC | 0% (inactive) | 4% (inactive) | 0% (inactive) | 0% (inactive)
34 | COc1ccc(C(=O)NC(=S)Nc2ccc(N3CCN(C(C)=O)CC3)cc2)cc1[N+](=O)[O-] | 10% (inactive) | 31% | 44% | 15% (inactive)
35 | COc1ccc(N2CCN(C(=O)C3CCC(Cn4c(=S)[nH]c5ccccc5c4=O)CC3)CC2)cc1 (stereo not drawn) | 2% (inactive) | 67% | 0% (inactive) | 45%
36 | CC(NC(=O)c1ccco1)C(=O)N1CCN(c2cccc(C(F)(F)F)c2)CC1 (stereo not drawn) | 0% (inactive) | 12% (inactive) | 20% (inactive) | 5% (inactive)
37 | N#Cc1c(NC(=O)CN2CCN(C(=O)c3ccco3)CC2)sc2c1CCCCC2 | 0% (inactive) | 6% (inactive) | 20% (inactive) | 0% (inactive)
38 | CCC(=O)N1CCN(c2ccc(NC(=S)NC(=O)c3ccc(OC)c([N+](=O)[O-])c3)cc2)CC1 | 13% (inactive) | 40% | 25% (inactive) | 21% (inactive)
39 | COc1ccc(/C=C2/Sc3ccc(C(=O)NCCCN4CCOCC4)cc3NC2=O)cc1OC | 5% (inactive) | 0% (inactive) | 0% (inactive) | 1% (inactive)
40 | CC(=O)c1ccc(N2CCN(C(=O)c3cccc(Oc4ccccc4)c3)CC2)cc1 | 0% (inactive) | 0% (inactive) | 29% (inactive) | 12% (inactive)
41 | N#Cc1ccccc1OCCCN1CCC(Cc2ccccc2)CC1 | 11% (inactive) | 9% (inactive) | 21% (inactive) | 0% (inactive)
42 | O=C(CN1CCN(C(=O)c2ccccc2)CC1)Nc1cc(S(=O)(=O)N2CCCC2)ccc1Cl | 21% (inactive) | 14% (inactive) | 55% | 3% (inactive)
